Measurements reported in ChEMBL document CHEMBL1201862, “PubChem BioAssay data set” (2004).
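Cultured in 96-well plates, cells were exposed to test compound for 48 hours across five concentrations. GI50: concentration for 50% inhibition of growth.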 Calls of active or inactive are those of the source. No stated cut-off is given here; in the data, active = GI50 up to about 1.1 µM and inactive = higher.

Legend:
Assay in all cases: inhibition of tumour cell growth, NCI panel, 48 h
SN12C = system: SN12C
KM12 = system: KM12
SK-OV-3 = system: SK-OV-3
Malme-3M = system: Malme-3M
NCI/ADR-RES = system: NCI/ADR-RES
SF-268 = system: SF-268
BT-549 = system: BT-549
SF-539 = system: SF-539
SK-MEL-28 = system: SK-MEL-28
M14 = system: M14
TK-10 = system: TK-10
OVCAR-5 = system: OVCAR-5
NCI-H23 = system: NCI-H23
NCI-H522 = system: NCI-H522
OVCAR-8 = system: OVCAR-8
MDA-MB-435 = system: MDA-MB-435
UO-31 = system: UO-31
HCT-116 = system: HCT-116
HT-29 = system: HT-29
HL-60 = system: HL-60
A498 = system: A498
CAKI-1 = system: CAKI-1
MCF7 = system: MCF7
EKVX = system: EKVX
SR = system: SR
U-251 = system: U-251
OVCAR-4 = system: OVCAR-4
UACC-62 = system: UACC-62
NCI-H226 = system: NCI-H226
786-0 = system: 786-0
HCT-15 = system: HCT-15
HOP-92 = system: HOP-92
UACC-257 = system: UACC-257
T47D = system: T47D
MDA-MB-231 = system: MDA-MB-231
COLO 205 = system: COLO 205
IGROV-1 = system: IGROV-1
RPMI-8226 = system: RPMI-8226
Hs-578T = system: Hs-578T
NCI-H460 = system: NCI-H460
RXF 393 = system: RXF 393
ACHN = system: ACHN
PC-3 = system: PC-3
A549 = system: A549
K562 = system: K562
HCC 2998 = system: HCC 2998
HOP-62 = system: HOP-62
SK-MEL-2 = system: SK-MEL-2
SNB-19 = system: SNB-19
CCRF-CEM = system: CCRF-CEM
SF-295 = system: SF-295
MDA-N = system: MDA-N
DU-145 = system: DU-145
SK-MEL-5 = system: SK-MEL-5
OVCAR-3 = system: OVCAR-3
MOLT-4 = system: MOLT-4
SW-620 = system: SW-620
LOX IMVI = system: LOX IMVI

With Nc1c(-c2nc3ccccc3o2)sc(=S)n1-c1ccc(Cl)cc1 the GI50 (SN12C) was 51.8 µM (inactive), the GI50 (KM12) was 22.4 µM (inactive) and the GI50 (SK-OV-3) was 15.5 µM (inactive). For the same compound, the GI50 (Malme-3M) was 19.1 µM (inactive), the GI50 (NCI/ADR-RES) was 19.3 µM (inactive) and the GI50 (SF-268) was 12.9 µM (inactive). The GI50 (BT-549) was 31 µM (inactive), the GI50 (SF-539) was 11.6 µM (inactive) and the GI50 (SK-MEL-28) was 13.9 µM (inactive). The GI50 (M14) was 15.4 µM (inactive), the GI50 (TK-10) was 27.9 µM (inactive) and the GI50 (OVCAR-5) was 46.1 µM (inactive). The GI50 (NCI-H23) was 13.9 µM (inactive), the GI50 (NCI-H522) was 14 µM (inactive) and the GI50 (OVCAR-8) was 12.1 µM (inactive). The GI50 (MDA-MB-435) was 17.3 µM (inactive), the GI50 (UO-31) was 29.4 µM (inactive) and the GI50 (HCT-116) was 12.3 µM (inactive). The GI50 (HT-29) was 37.4 µM (inactive), the GI50 (HL-60) was > 100 µM (inactive) and the GI50 (A498) was 37.7 µM (inactive). For the same compound, the GI50 (CAKI-1) was 12.6 µM (inactive), the GI50 (MCF7) was 5.07 µM (inactive) and the GI50 (EKVX) was 12.6 µM (inactive). For the same compound, the GI50 (SR) was 51.5 µM (inactive), the GI50 (U-251) was 15.6 µM (inactive) and the GI50 (OVCAR-4) was 11 µM (inactive). For the same compound, the GI50 (UACC-62) was 0.452 µM (active), the GI50 (NCI-H226) was 13.9 µM (inactive) and the GI50 (786-0) was 8.57 µM (inactive). For the same compound, the GI50 (HCT-15) was 26.1 µM, the GI50 (HOP-92) was 21.7 µM (inactive) and the GI50 (UACC-257) was 18 µM (inactive). For the same compound, the GI50 (T47D) was 2.58 µM (inactive), the GI50 (MDA-MB-231) was 19.3 µM (inactive) and the GI50 (COLO 205) was 17.1 µM (inactive). For the same compound, the GI50 (IGROV-1) was 17.7 µM (inactive), the GI50 (RPMI-8226) was 82.6 µM (inactive) and the GI50 (Hs-578T) was 12.8 µM (inactive). For the same compound, the GI50 (NCI-H460) was 23 µM (inactive), the GI50 (RXF 393) was 23 µM (inactive) and the GI50 (ACHN) was 9.1 µM (inactive). The GI50 (PC-3) was 21.7 µM (inactive), the GI50 (A549) was 13.2 µM (inactive) and the GI50 (K562) was 0.474 µM (active). The GI50 (HCC 2998) was 1.27 µM (inactive), the GI50 (HOP-62) was 5.11 µM (inactive) and the GI50 (SK-MEL-2) was 11.2 µM (inactive). The GI50 (SNB-19) was 13.7 µM (inactive), the GI50 (CCRF-CEM) was > 100 µM (inactive) and the GI50 (SF-295) was 10.6 µM (inactive). For the same compound, the GI50 (MDA-N) was 21.4 µM (inactive), the GI50 (DU-145) was 12 µM (inactive) and the GI50 (SK-MEL-5) was 17.2 µM (inactive). The GI50 (OVCAR-3) was 15.9 µM (inactive) and the GI50 (MOLT-4) was > 100 µM (inactive).

In the case of CC1CC[C@@]2(OC1)OC1C[C@H]3[C@@H]4CC=C5CC(OC6OC(CO)C(OC7OC(CO)C(O)C(OC8OCC(O)C(O)C8O)C7OC7OC(CO)C(OC8OC(C)C(OC9OC(C)C(O)C(O)C9O)C(O)C8O)C(O)C7O)C(O)C6O)CCC5(C)[C@H]4CCC3(C)C1[C@@H]2C (stereo not given in full), the GI50 (SN12C) is reported as 9.35 µM (inactive), the GI50 (KM12) is reported as 9.33 µM (inactive) and the GI50 (SK-OV-3) is reported as 9.23 µM (inactive). For the same compound, the GI50 (SW-620) was 11.4 µM (inactive), the GI50 (Malme-3M) was 10.6 µM (inactive) and the GI50 (NCI/ADR-RES) was 9.48 µM (inactive). The GI50 (SF-268) was 9.71 µM (inactive), the GI50 (BT-549) was 9.2 µM (inactive) and the GI50 (SF-539) was 6.08 µM (inactive). The GI50 (SK-MEL-28) was 11.2 µM (inactive), the GI50 (M14) was 4.28 µM (inactive) and the GI50 (TK-10) was 8.59 µM (inactive). The GI50 (OVCAR-5) was 7.46 µM (inactive), the GI50 (NCI-H23) was 8.97 µM (inactive) and the GI50 (NCI-H522) was 8.87 µM (inactive). The GI50 (OVCAR-8) was 9.95 µM (inactive), the GI50 (MDA-MB-435) was 9.06 µM (inactive) and the GI50 (HCT-116) was 8.47 µM (inactive). For the same compound, the GI50 (HT-29) was 8.17 µM (inactive), the GI50 (HL-60) was 8.99 µM (inactive) and the GI50 (A498) was 2.02 µM (inactive). For the same compound, the GI50 (CAKI-1) was 7.55 µM (inactive), the GI50 (MCF7) was 14.1 µM (inactive) and the GI50 (EKVX) was 8.28 µM (inactive). For the same compound, the GI50 (SR) was 0.495 µM (active), the GI50 (U-251) was 9.04 µM (inactive) and the GI50 (OVCAR-4) was 4.21 µM (inactive). For the same compound, the GI50 (UACC-62) was 9.71 µM (inactive), the GI50 (NCI-H226) was 9.08 µM (inactive) and the GI50 (786-0) was 2.37 µM (inactive). The GI50 (HCT-15) was 9.64 µM, the GI50 (HOP-92) was 7.46 µM (inactive) and the GI50 (LOX IMVI) was 8.99 µM (inactive). For the same compound, the GI50 (UACC-257) was 9.35 µM (inactive), the GI50 (T47D) was 9.29 µM (inactive) and the GI50 (MDA-MB-231) was 5.36 µM (inactive). For the same compound, the GI50 (COLO 205) was 8.22 µM (inactive), the GI50 (IGROV-1) was 8.49 µM (inactive) and the GI50 (RPMI-8226) was 10.8 µM (inactive). The GI50 (Hs-578T) was 9.29 µM (inactive), the GI50 (NCI-H460) was 9.93 µM (inactive) and the GI50 (RXF 393) was 6.34 µM (inactive). The GI50 (ACHN) was 2.5 µM (inactive), the GI50 (PC-3) was 5.32 µM (inactive) and the GI50 (A549) was 7.48 µM (inactive). The GI50 (K562) was 8.05 µM (inactive), the GI50 (HCC 2998) was 7.08 µM (inactive) and the GI50 (HOP-62) was 7.13 µM (inactive). For the same compound, the GI50 (SK-MEL-2) was 6.71 µM (inactive), the GI50 (SNB-19) was 5.61 µM (inactive) and the GI50 (CCRF-CEM) was 10.4 µM (inactive). For the same compound, the GI50 (SF-295) was 6.71 µM (inactive), the GI50 (MDA-N) was 9.02 µM (inactive) and the GI50 (DU-145) was 7.87 µM (inactive). The GI50 (SK-MEL-5) was 8.69 µM (inactive), the GI50 (OVCAR-3) was 10.8 µM (inactive) and the GI50 (MOLT-4) was 11.6 µM (inactive).

Nc1nc(-c2cccc([N+](=O)[O-])c2)cc(-c2cc(-c3cccc([N+](=O)[O-])c3)nc(N)n2)n1 was tested, and the GI50 (SN12C) was > 100 µM (inactive), the GI50 (KM12) was > 100 µM (inactive) and the GI50 (SK-OV-3) was > 100 µM (inactive). For the same compound, the GI50 (SW-620) was > 100 µM (inactive), the GI50 (Malme-3M) was > 100 µM (inactive) and the GI50 (NCI/ADR-RES) was > 100 µM (inactive). The GI50 (SF-268) was > 100 µM (inactive), the GI50 (BT-549) was > 100 µM (inactive) and the GI50 (SF-539) was > 100 µM (inactive). For the same compound, the GI50 (SK-MEL-28) was > 100 µM (inactive), the GI50 (M14) was > 100 µM (inactive) and the GI50 (TK-10) was > 100 µM (inactive). The GI50 (OVCAR-5) was > 100 µM (inactive), the GI50 (NCI-H23) was > 100 µM (inactive) and the GI50 (NCI-H522) was > 100 µM (inactive). For the same compound, the GI50 (OVCAR-8) was > 100 µM (inactive), the GI50 (MDA-MB-435) was > 100 µM (inactive) and the GI50 (UO-31) was > 100 µM (inactive). The GI50 (HCT-116) was > 100 µM (inactive), the GI50 (HT-29) was > 100 µM (inactive) and the GI50 (HL-60) was > 100 µM (inactive). For the same compound, the GI50 (A498) was > 100 µM (inactive), the GI50 (CAKI-1) was > 100 µM (inactive) and the GI50 (MCF7) was > 100 µM (inactive). The GI50 (EKVX) was > 100 µM (inactive), the GI50 (SR) was > 100 µM (inactive) and the GI50 (U-251) was > 100 µM (inactive). The GI50 (OVCAR-4) was > 100 µM (inactive), the GI50 (UACC-62) was > 100 µM (inactive) and the GI50 (NCI-H226) was > 100 µM (inactive). For the same compound, the GI50 (786-0) was > 100 µM (inactive), the GI50 (HCT-15) was > 100 µM and the GI50 (HOP-92) was > 100 µM (inactive). For the same compound, the GI50 (LOX IMVI) was > 100 µM (inactive), the GI50 (UACC-257) was > 100 µM (inactive) and the GI50 (T47D) was > 100 µM (inactive). For the same compound, the GI50 (MDA-MB-231) was > 100 µM (inactive), the GI50 (COLO 205) was > 100 µM (inactive) and the GI50 (IGROV-1) was > 100 µM (inactive). The GI50 (RPMI-8226) was > 100 µM (inactive), the GI50 (Hs-578T) was > 100 µM (inactive) and the GI50 (NCI-H460) was > 100 µM (inactive). The GI50 (RXF 393) was > 100 µM (inactive), the GI50 (ACHN) was > 100 µM (inactive) and the GI50 (PC-3) was > 100 µM (inactive). The GI50 (A549) was > 100 µM (inactive), the GI50 (K562) was > 100 µM (inactive) and the GI50 (HCC 2998) was > 100 µM (inactive). For the same compound, the GI50 (HOP-62) was > 100 µM (inactive), the GI50 (SK-MEL-2) was > 100 µM (inactive) and the GI50 (SNB-19) was > 100 µM (inactive). The GI50 (SF-295) was > 100 µM (inactive), the GI50 (MDA-N) was > 100 µM (inactive) and the GI50 (DU-145) was > 100 µM (inactive). The GI50 (SK-MEL-5) was > 100 µM (inactive), the GI50 (OVCAR-3) was > 100 µM (inactive) and the GI50 (MOLT-4) was > 100 µM (inactive).
